Results reported in US20260041640A1 (INCYCLIX BIO, LLC, priority 2023, published 2026).

How the values were obtained:
[1] = Toxicity and toxicokinetics studies, rat; assay type: in vivo, Sprague Dawley rats
Procedure: (§1) Nominal dose values and sampling times were used for calculations. Any concentration reported as BLQ (LLOQ<1.0 ng/mL) was set equal to zero. Toxicokinetic analyses included Cmax, Tmax, AUC0-24, t1/2, RA Cmax, and RA AUC0-24.
(§2) Following this, human dose exposure was simulated using a combined whole blood and plasma compartment PK model using allometry and whole blood parameter estimates for the absorption rate constants and bioavailability per animal species. Absolute dose administration was used for modeling. V1, CL, V2, and Q parameters were extrapolated to human using allometric scaling. CL, Q by exponent equaled 0.818. V1, V2 by exponent equaled 1.03. Human body weight was set to 75 kg. Absorption rate constant (KA) was in reasonable ranges in mouse, rat, and dog, with values of 0.44, 0.53, and 0.18 (1/hr), respectively.
(§3) All INX-315 tablets were taken at approximately the same time(s) each day.

[2] = Toxicity and toxicokinetics studies, mouse; assay type: in vivo, mice
Procedure: as §1, §2

[3] = Plasma protein binding, human; assay type: in vitro ADME
Source text: (§4) Additionally, the whole blood-to-plasma ratio (KWB/P) in humans is 6.20, which also exceeds the other species tested (Table 7).

[4] = Toxicity and toxicokinetics studies, dog; assay type: in vivo, beagle dogs
Source text: Following this, human dose exposure was simulated using a combined whole blood and plasma compartment PK model using allometry and whole blood parameter estimates for the absorption rate constants and bioavailability per animal species. Absolute dose administration was used for modeling. V1, CL, V2, and Q parameters were extrapolated to human using allometric scaling. […] Human body weight was set to 75 kg.

[5] = Organic solubility of INX-315 by visual inspection; assay type: physicochemical; set-up: key to Soluble at 4 wt % / Soluble at 2 wt % / Soluble at 1 wt % / Soluble at 0.5 wt % / Soluble at 0.4 wt % / Soluble at 0.25 wt %: ✓, soluble; X, insoluble
[6] = Plasma protein binding, mouse; assay type: in vitro ADME
Source text: as §4

Ovcar-3 = conditions: BLU-222: based on Ovcar-3 cell cycle data (maximum G1 arrest); read-out: Cellular IC50; cited from earlier work
[7] = Non-Sink Dissolution Method (gastric to intestinal transfer); assay type: physicochemical
Procedure: The Gastric Media comprised 0.01 N HCl (pH 2.0) at a dose of 1500 μgA/mL. Timepoints tested were 10 min and 25 min following microcentrifugation of 100 μL aliquots diluted 5× in MeOH at 18,500 g. The Intestinal Media comprised 0.5 wt % SIF in Phosphate Buffer (pH 6.5) at a dose of 500 μgA/mL. Timepoints tested were 5 min, 30 min, 45 min, 70 min, 180 min, and 24 hr (post-transfer) following microcentrifugation of 100 μL aliquots diluted 5× in MeOH at 18,500 g. Timepoints tested were 5 min, 45 min, and 24 hr (post-transfer) following ultracentrifugation of 100 μL aliquots diluted 5× in MeOH at 470,000 g. The supernatants were assayed by HPLC.

[8] = Plasma protein binding, dog; assay type: in vitro ADME
Source text: as §4

[9] = First-in-human clinical study: safety and tolerability; assay type: in vivo
Procedure: as §3
Cohort 1 enrollment of 6 subjects dosed at 100 mg oral QD was completed in October of 2023.

NS(=O)(=O)c1ccc(Nc2ncc3cc4n(c3n2)C2(CCCCC2)C(=O)NN4)cc1 [INX-315]
0.53 h⁻¹: Absorption rate constant (KA) ([1]; both, Sprague Dawley, rat, in vivo)
No DLTs: DLTs ([9]; Cohort 1, 100 mg QD)
62%: bioavailability ([2]; whole blood, po, read-out: Bioavailability (F1))
0.04: fraction unbound [8]
✓: Soluble at 0.25 wt % ([5]; 4:1 THF:H2O) | Soluble at 0.4 wt % ([5]; 4:1 THF:H2O) | Soluble at 0.5 wt % ([5]; 4:1 THF:H2O) | Soluble at 1 wt % ([5]; 4:1 THF:H2O) | Soluble at 2 wt % ([5]; 4:1 THF:H2O) | Soluble at 4 wt % ([5]; 4:1 THF:H2O) | Soluble at 0.25 wt % ([5]; 8:2 Acetone:H2O) | Soluble at 0.4 wt % ([5]; 8:2 Acetone:H2O) | Soluble at 0.25 wt % ([5]; 9:1 ACN:H2O) | Soluble at 0.4 wt % ([5]; 9:1 ACN:H2O) | Soluble at 0.5 wt % ([5]; 9:1 ACN:H2O) | Soluble at 0.25 wt % ([5]; 9:1 Acetone:H2O) | Soluble at 0.4 wt % ([5]; 9:1 Acetone:H2O) | Soluble at 0.25 wt % ([5]; Acetone) | Soluble at 0.4 wt % ([5]; Acetone) | Soluble at 0.5 wt % ([5]; Acetone) | Soluble at 0.25 wt % ([5]; Methanol)
up to 0.5 wt %: Organic solubility (soluble up to) ([5]; 9:1 ACN:H2O) | Organic solubility (soluble up to) ([5]; Acetone)
16,216 mg/day: HED of the highest nonseverely toxic dose (HNSTD) ([4]; dogs)
X: Soluble at 0.25 wt % ([5]; 1:9 DMSO:H2O) | Soluble at 0.4 wt % ([5]; 1:9 DMSO:H2O) | Soluble at 0.5 wt % ([5]; 1:9 DMSO:H2O) | Soluble at 1 wt % ([5]; 1:9 DMSO:H2O) | Soluble at 2 wt % ([5]; 1:9 DMSO:H2O) | Soluble at 4 wt % ([5]; 1:9 DMSO:H2O) | Soluble at 0.25 wt % ([5]; 3:1 DCM:MeOH) | Soluble at 0.4 wt % ([5]; 3:1 DCM:MeOH) | Soluble at 0.5 wt % ([5]; 3:1 DCM:MeOH) | Soluble at 1 wt % ([5]; 3:1 DCM:MeOH) | Soluble at 2 wt % ([5]; 3:1 DCM:MeOH) | Soluble at 4 wt % ([5]; 3:1 DCM:MeOH) | Soluble at 0.25 wt % ([5]; 4:1 ACN:H2O) | Soluble at 0.4 wt % ([5]; 4:1 ACN:H2O) | Soluble at 0.5 wt % ([5]; 4:1 ACN:H2O) | Soluble at 1 wt % ([5]; 4:1 ACN:H2O) | Soluble at 2 wt % ([5]; 4:1 ACN:H2O) | Soluble at 4 wt % ([5]; 4:1 ACN:H2O) | Soluble at 0.25 wt % ([5]; 5:1 DCM:H2O) | Soluble at 0.4 wt % ([5]; 5:1 DCM:H2O) | Soluble at 0.5 wt % ([5]; 5:1 DCM:H2O) | Soluble at 1 wt % ([5]; 5:1 DCM:H2O) | Soluble at 2 wt % ([5]; 5:1 DCM:H2O) | Soluble at 4 wt % ([5]; 5:1 DCM:H2O) | Soluble at 0.5 wt % ([5]; 8:2 Acetone:H2O) | Soluble at 1 wt % ([5]; 8:2 Acetone:H2O) | Soluble at 2 wt % ([5]; 8:2 Acetone:H2O) | Soluble at 4 wt % ([5]; 8:2 Acetone:H2O) | Soluble at 1 wt % ([5]; 9:1 ACN:H2O) | Soluble at 2 wt % ([5]; 9:1 ACN:H2O) | Soluble at 4 wt % ([5]; 9:1 ACN:H2O) | Soluble at 0.5 wt % ([5]; 9:1 Acetone:H2O) | Soluble at 1 wt % ([5]; 9:1 Acetone:H2O) | Soluble at 2 wt % ([5]; 9:1 Acetone:H2O) | Soluble at 4 wt % ([5]; 9:1 Acetone:H2O) | Soluble at 1 wt % ([5]; Acetone) | Soluble at 2 wt % ([5]; Acetone) | Soluble at 4 wt % ([5]; Acetone) | Soluble at 0.4 wt % ([5]; Methanol) | Soluble at 0.5 wt % ([5]; Methanol) | Soluble at 1 wt % ([5]; Methanol) | Soluble at 2 wt % ([5]; Methanol) | Soluble at 4 wt % ([5]; Methanol)
well tolerated: tolerability ([9]; Cohort 1, 100 mg QD)
< 100 nM: IC50 (Ovcar-3)
8%: bioavailability ([1]; both sexes, Sprague Dawley, rat, in vivo, po)
0.44 h⁻¹: Absorption rate constant (KA) ([2]; model parameter estimate)
12: Non-Sink Dissolution, Micro @ 60 min ([7]; microcentrifuged (total drug), 60 min) | Non-Sink Dissolution, Ultra @ 60 min ([7]; ultracentrifuged (dissolved drug), 60 min) | Non-Sink Dissolution, Ultra @ 180 min ([7]; ultracentrifuged (dissolved drug), 180 min)
0.18 h⁻¹: Absorption rate constant (KA) ([4]; beagle, dog, in vivo)
no new safety issues: safety issues ([9]; 200 mg QD)
13: Non-Sink Dissolution, Micro @ 5 min ([7]; microcentrifuged (total drug), 5 min) | Non-Sink Dissolution, Micro @ 180 min ([7]; microcentrifuged (total drug), 180 min) | Non-Sink Dissolution, Ultra @ 5 min ([7]; ultracentrifuged (dissolved drug), 5 min)
97 fold: safety margin of 100 mg QD starting dose vs HED of NOAEL ([1]; rats)
160 fold: safety margin of 100 mg QD starting dose vs HED of HNSTD ([4]; dogs)
No significant changes: changes in complete blood counts or clinical chemistries ([9]; Cohort 1, 100 mg QD)
0.056: fraction unbound [3]
0.023: fraction unbound [6]
9730 mg/day: human equivalent dose (HED) of the no observed adverse effect level (NOAEL) ([1]; rats)
